Series [1] deals with CB1R expression in liver explants of ob/ob mice. The experiment in a line: Liver explant culture, CB1R gene expression (RT-PCR). Format: cell-based, mouse. The settings on record: liver explants of ob/ob mice treated 21 h, FIG. 1. As for the experimental part: The liver of the mice was perfused in situ, under sodium pentobarbital anaesthesia (50 mg/kg), with Hank's medium (pH 7.4) saturated with oxygen. Next, the liver was sectioned using a Brendel/Vitron slicer (Tucson, Ariz., USA) in the same medium. The liver sections (about 200 μm) were then incubated 21 h in William's medium E (WME) oxygenated and supplemented with deactivated foetal calf serum (10%) and antibiotic/antifungal cocktail (1%) under controlled atmosphere (5% CO2), to which is added either the antagonist to be tested or vehicle.
Total messenger RNA (mRNA) extraction was carried out with Tri Reagent (Euromedex, France) and consecutive synthesis of complementary DNA (cDNA) was carried out from 1 μg of mRNA with the Bio-Rad iScripttm Reverse Transcription super mix kit (Bio-Rad, France).
Gene expression was evaluated by semi-quantitative real-time reverse transcription-polymerase chain reaction (RT-PCR). The primers used were designed using the Primer3Plus software (http://www.bioinformatics.nl/cgi-bin/primer3plus/primer3plus.cgi) and were synthesized by MWG-Biotech (TATA box-binding protein: Sense […], antisense […]; CB1R: Sense […], antisense aaccccacccagtttgaac). Semi-quantification of gene expression was obtained by taking into account the efficacy of each PCR and after standardization with the reporter gene, TATA box-binding protein.

The target in another series is T1, CB1R (pcDNA3.1-mCB1) (Mus musculus, UniProt P47746).
T1 construct: expressed in transfected cells; host or cells: HEK293T/17 (ATCC), transient transfection with FuGENE HD
The series is described as follows: GloSensor cAMP assay in CB1R-transfected HEK293T/17 cells. The settings on record: HEK293T/17 cells transfected with mCB1, forskolin 1 μM, FIG. 2. Format: cell-based. As for the experimental part: HEK293T/17 (ATCC) cells were cultured in DMEM 10% FCS, then seeded at 30000 cells/well in 96-well plates. After 24 h, the cells were subjected to transient transfection by FuGENE HD (Promega) by pcDNA3.1-mCB1 (50 ng) and pGlo (100 ng) plasmids with or without pertussis toxin (PTX). For the control assays, the cells were transfected with empty pcDNA3 (EV) and pGlo vectors with or without PTX. At 48 h (24 h post-transfection), the cells were loaded for 2 h with 2% GloReagent in CO2-independent medium with 10% FCS (80 μL/well).
The cells were then treated by adding, at t=0, 10 μL/well of Forskolin (FSK) 1 μM final, in order to increase the basal cAMP concentration. The kinetics of appearance of cAMP was monitored for 10 minutes. At t=10, the molecules to be tested were added and the cAMP variations measured for 20 minutes. The light signal was measured in RLU and is expressed as % response relative to the signal read at t=10 min (FSK1 μM). Sigmoidal curves were obtained by measurement at t=10 min after addition of the molecule to be tested (thus t=20 min total) of the percentage of light signal as a function of molecule concentration. The 4PL regression was carried out using the Sigma Plot software and made it possible to obtain an EC50 (1 experiment, n=3).
In general terms: Changes in cAMP serve as a functional read-out for many G protein-coupled receptors.

For the next series, the system named is C57BL/6 mice. The experiment in a line: Gastrointestinal transit (charcoal), anandamide-induced inhibition. Format: in vivo, mouse. The settings on record: 10 mg/kg i.p. with AEA 10 mg/kg i.p. As for the experimental part: Transit through the stomach and the intestine was measured via oral administration of vegetable charcoal suspended in gum arabic used herein as nonabsorbable marker. Briefly, following a short fast, C57BL/6 mice were injected intraperitoneally (i.p.) with anandamide (10 mg/kg) in the presence or absence of the molecule of interest JM-00.266 (i.e., compound IA) (10 mg/kg) before oral charcoal administration. 25 minutes later, the animals were sacrificed by cervical dislocation in order to entirely remove the intestine. The distance between the beginning of the pylorus and the location of the charcoal bolus was measured.

The test system of series [2] is obese C57BL/6 mice. The series is described as follows: Open-field test after 30-day chronic treatment. The format is in vivo, mouse. To be noted: end of 30-day treatment, 10 mg/kg i.p. As for the experimental part:
Locomotor activity of the mice was measured at the conclusion of the chronic treatment with rimonabant or molecule JM-00.266 (i.e., compound IA) by an infrared monitoring system. To that end, the animals were placed individually in 43×43 cm plexiglass boxes (MED associates) for 20 min. Two series of 16 pulsed infrared beams were spaced 2.5 cm apart on opposite walls to record ambulatory X-Y movements at 100 ms resolution. The centre was defined as a central 32×32 cm square. In addition to locomotor activity information, this test makes it possible to predict anxiolytic activity in response to novelty or to an anxiogenic environment. The variables measured in the open field are total ambulatory activity (in cm), the number of entries and the time spent in the central area as well as the distance traversed in the centre divided by the total distance traversed.

In series [3] the test system is obese C57BL/6 mice. The series is described as follows: Food intake, body weight and body composition (EchoMRI) during 30-day chronic treatment. The format is in vivo, mouse. The settings on record: obese mice, 10 mg/kg i.p. daily, 30 days. The text has this: In order to determine the long-term effects of the molecules of interest, C57BL/6 mice made obese by means of a high-sucrose, high-fat diet (HSHF: 30% crude fat, 33.5% carbohydrates; ref. E15126-34; ref. E15126-34, SSNIFF, Soest, Germany) for 20 weeks. These mice then received daily an i.p. injection of rimonabant, JM-00.266 (i.e., compound IA) or vehicle for a period of 30 days. In parallel, weight and food intake were monitored every two days following the beginning of the treatment.
The long-term effect of the treatment on body composition was measured using an EchoMRI™ scanner allowing non-invasive analysis of fat mass, lean mass and body fluid composition by nuclear magnetic resonance (NMR) on the live animal without anaesthesia.

The test system of series [4] is obese C57BL/6 mice. The experiment in a line: OGTT before and after 30-day chronic treatment. Format: in vivo, mouse. To be noted: obese mice after 30 days of treatment, 10 mg/kg. On the procedure: In order to evaluate the long-term effects of the treatment on blood glucose control, glucose tolerance (OGTT) and insulin sensitivity (ITT) were evaluated pre- and post-treatment. Thus, for the OGTT the mice were force-fed glucose (2 g/kg), and for the ITT the mice received an i.p. injection of insulin (0.5 IU/kg). In both cases, blood glucose was measured at times t=0, t=15 min, t=30 min, t=45 min, t=60 min, t=90 min, and t=120 min post-glucose ingestion using a Contour®TS blood glucose monitor (ref. 81574201, Bayer HealthCare) and reactive strips (ref. 81574274, Bayer HealthCare).

T1 sequence (P47746 whole entry): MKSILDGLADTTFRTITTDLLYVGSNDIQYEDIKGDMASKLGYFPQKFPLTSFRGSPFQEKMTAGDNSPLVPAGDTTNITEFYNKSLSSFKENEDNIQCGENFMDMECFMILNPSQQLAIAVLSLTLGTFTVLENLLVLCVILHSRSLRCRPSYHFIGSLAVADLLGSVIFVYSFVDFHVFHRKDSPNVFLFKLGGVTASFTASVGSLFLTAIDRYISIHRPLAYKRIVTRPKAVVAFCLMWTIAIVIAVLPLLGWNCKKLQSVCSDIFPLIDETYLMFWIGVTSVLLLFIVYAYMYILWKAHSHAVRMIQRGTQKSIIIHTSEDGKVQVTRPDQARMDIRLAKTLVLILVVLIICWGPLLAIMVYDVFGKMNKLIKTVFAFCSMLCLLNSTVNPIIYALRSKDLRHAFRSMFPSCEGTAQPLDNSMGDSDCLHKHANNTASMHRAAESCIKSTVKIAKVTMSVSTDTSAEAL

For `CSc1ccc(C2C(N3C(=O)c4ccccc4C3=O)C(=O)N2c2ccc(SC)cc2)cc1` (stereo not drawn) [JM-00.266, trans-1,4-di-(4-methylthiophenyl)-3-N-phthaloyl-azetidine-2-one], the “hepatic CB1R expression” value in series [1] is listed as “significant decrease”. For the same molecule, the “cAMP concentrations in the absence of agonist (AEA)” value at CB1R (pcDNA3.1-mCB1) is “increased”. Moreover, the “effect on AEA-induced inhibition of gastrointestinal transit” value in the series on C57BL/6 mice was “completely abolishes the effect of the agonist and normalizes gastrointestinal transit”. In the series with obese C57BL/6 mice [2], the motor activity entry is “no effect” and the “time spent in the centre of the arena / anxiety state” value is on record as “not altered”. For the same molecule, in the series with obese C57BL/6 mice [3], the “body weight relative to control mice” value is listed as “does not decrease” and the “food intake compared with control mice” value is given as “not altered”. Also, in the series on obese C57BL/6 mice [4], the basal blood glucose result is listed as “significant improvement” and the “glucose tolerance (OGTT 2 g/kg)” value is listed as “significant improvement”.

The record behind these values is patent publication US10457665B2, “1,4-di-(4-methylthiophenyl)-3-phtaloylazetidine-2-one and the derivatives thereof” (Universite De Nantes, priority 2015, dated 2019).
